Literature values, collected in patent US11963940B2, “Parenteral esmolol formulation” (AOP ORPHAN PHARMACEUTICALS AG, priority 2012, dated 2024).

Conditions: after the starting dose, e.g. initial infusion

In the case of `COC(=O)CCc1ccc(OCC(O)CNC(C)C)cc1.Cl` (stereo not shown) [esmolol, 4-[2-Hydroxy-3-[(1-methylethyl)amino]propoxy] benzenepropanoic acid methyl ester hydrochloride], the “time to steady state plasma concentration” value is given as ≤ 5 min.
